In patent US20080248112A1 (priority 2007, published 2008):
“Also recorded” adds a separate entry of the source.

Test system: glycosylated hemoglobin level (HbAlC)
Experiment: Clinical study of long term administration of ranolazine: HbA1C in patients having coronary disease
Format: in vivo, human
Excerpt: Baseline is in-hospital visit prior to hospitalization.

COc1ccccc1OCC(O)CN1CCN(CC(=O)Nc2c(C)cccc2C)CC1 (racemic) [Ranolazine, (±)-N-(2,6-dimethylphenyl)-4-[2-hydroxy-3-(2-methoxyphenoxy)-propyl]-1-piperazineacetamide]
Number of patients with HbA1c ≧7% (Diabetes at enrollment, n = 1098, Month 16): 63
Number of patients with HbA1c ≧7% (No Diabetes at enrollment, n = 2170, Final Visit): 92
Number of patients with HbA1c ≧7% (No Diabetes at enrollment, n = 2170, Month 4): 78
Number of patients with HbA1c ≧7% (No Diabetes at enrollment, n = 2170, Month 8): 72
Number of patients with HbA1c ≧7% (No Diabetes at enrollment, n = 2170, Month 16): 21
Effect on HbAlc levels (all patients treated, FIGS. 1 and 2): HbAlc lowering effect on all patients treated; also recorded: significantly lowers serum HbAlC levels
Effect on HbAlc levels (diabetic patients, FIG. 2): reduction in the amount of HbAlC levels
Effect on HbAlc levels (non-diabetic patients, FIG. 2): reduction in the amount of HbAlC levels
